Results as given in patent US7989449B2, “4,5-dihydro-oxazol-2-yl amine derivatives” (Hoffman-La Roche Inc., priority 2008, dated 2011).
Where a name gives a salt, the structure may show the parent alone.

Molecular target: T1, 6his-tagged full length BACE 1 from SF9 cells (Homo sapiens, UniProt P56817)
T1 construct: 6his-tagged full length BACE 1 from SF9 cells; made in house; host or cells: Sf9 insect cells
Experiment: BACE1 MR121 protease assay
Assay type: biochemical
Conditions: 30 nM 6his-BACE-1, 300 nM substrate peptide WSEVNLDAEFRC-MR121, Na-acetate pH 4.0, fluorescence
Method: Assay plate: 384 well microtiter plate, Corning clear, flat bottom, non binding surface
Assaybuffer: 100 mM Na-acetate pH 4.0, 20 mM EDTA, 0.05% BSA
BACE-1: 6his-tagged full length BACE 1 from SF9 cells
Substrate peptide: WSEVNLDAEFRC-MR121
BACE1 MR121 protease assay
39 μl of a 38 nM 6his-BACE-1 solution in assay buffer (final conc. in the assay: 30 nM) were pipetted into the assay plate. 1 μl of a concentration of a potential inhibitor in dimethylsulfoxide was added to the enzyme and incubated for 10 min. Finally, 10 μl of a 1.5 μM solution of the substrate in assay buffer (final conc. in the assay: 300 nM) was added to start the enzymatic reaction. After strong mixing for 2 min the enzymatic reaction was followed by measuring the fluorescence intensity every two minutes for 15 min on a suitable fluorescence reader. […] The slope was calculated from the linear part of the kinetic as a measure of the activity of BACE-1. A range of concentrations of the potential inhibitor was used to generate data for calculating the concentration of inhibitor resulting in 50% of the effect (e.g. IC50, the concentration of the compound inhibiting the BACE-1 activity by 50%).

T1 sequence (P56817 46-501): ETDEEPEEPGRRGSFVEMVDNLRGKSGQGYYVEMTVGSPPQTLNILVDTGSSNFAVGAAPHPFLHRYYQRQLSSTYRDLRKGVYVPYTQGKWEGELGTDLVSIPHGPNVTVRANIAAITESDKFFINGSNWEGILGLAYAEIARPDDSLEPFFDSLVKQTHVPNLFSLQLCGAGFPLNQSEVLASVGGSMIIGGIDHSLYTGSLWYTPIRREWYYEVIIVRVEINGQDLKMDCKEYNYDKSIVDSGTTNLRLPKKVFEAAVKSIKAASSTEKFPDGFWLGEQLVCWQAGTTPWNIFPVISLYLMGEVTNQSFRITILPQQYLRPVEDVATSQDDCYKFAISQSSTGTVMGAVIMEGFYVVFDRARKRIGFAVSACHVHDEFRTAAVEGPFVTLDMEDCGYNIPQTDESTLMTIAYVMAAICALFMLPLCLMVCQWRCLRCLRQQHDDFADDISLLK

| IC50 [µM] | SMILES |
| --- | --- |
| 0.49 | COc1ccc(F)c(-c2cccc(C3(c4ccc(OC(F)F)cc4C)COC(N)=N3)c2)c1 (racemic) [Example 130, (RS)-4-(4-Difluoromethoxy-2-methyl-phenyl)-4-(2′-fluoro-5′-methoxy-biphenyl-3-yl)-4,5-dihydro-oxazol-2-ylamine formate] |
| 0.46 | Cc1cnc(F)c(-c2cccc(C3(c4ccc(OC(F)F)cc4C)COC(N)=N3)c2)c1 (racemic) [Example 131, (RS)-4-(4-Difluoromethoxy-2-methyl-phenyl)-4-[3-(2-fluoro-5-methyl-pyridin-3-yl)-phenyl]-4,5-dihydro-oxazol-2-ylamine formate] |
| 0.84 | NC1=NC(c2cccc(-c3cncc(F)c3)c2)(c2ccc(OC(F)F)cc2F)CO1 (racemic) [Example 142, (RS)-4-(4-Difluoromethoxy-2-fluoro-phenyl)-4-[3-(5-fluoro-pyridin-3-yl)-phenyl]-4,5-dihydro-oxazol-2-ylamine formate] |
| 0.72 | Cc1cc(OC(F)F)ccc1C1(c2cccc(-c3cncc(F)c3)c2)COC(N)=N1 (racemic) [Example 145, (RS)-4-(4-Difluoromethoxy-2-methyl-phenyl)-4-[3-(5-fluoro-pyridin-3-yl)-phenyl]-4,5-dihydro-oxazol-2-ylamine formate] |
| 0.2 | COc1cncc(-c2cccc(C3(c4ccc(OC(F)F)cc4C)COC(N)=N3)c2)c1 (racemic) [Example 146, (RS)-4-(4-Difluoromethoxy-2-methyl-phenyl)-4-[3-(5-methoxy-pyridin-3-yl)-phenyl]-4,5-dihydro-oxazol-2-ylamine formate] |
| 0.96 | Cc1cc(OC(F)F)ccc1C1(c2cccc(-c3cccc(Cl)c3)c2)COC(N)=N1 (racemic) [Example 149, (RS)-4-(3′-Chloro-biphenyl-3-yl)-4-(4-difluoromethoxy-2-methyl-phenyl)-4,5-dihydro-oxazol-2-ylamine formate] |
| 0.38 | Cc1cc(OC(F)F)ccc1C1(c2cccc(-c3cncc(C#N)c3)c2)COC(N)=N1 (racemic) [Example 200, (RS)-5-{3-[2-Amino-4-(4-difluoromethoxy-2-methyl-phenyl)-4,5-dihydro-oxazol-4-yl]-phenyl}-nicotinonitrile formate] |
| 0.16 | Cc1cc(OC(F)F)ccc1C1(c2cccc(-c3cncc(Cl)c3)c2)COC(N)=N1 (racemic) [Example 201, (RS)-4-[3-(5-Chloro-pyridin-3-yl)-phenyl]-4-(4-difluoromethoxy-2-methyl-phenyl)-4,5-dihydro-oxazol-2-ylamine formate] |
| 0.09 | Cc1cc(C2(c3ccc(F)c(-c4cncc(Cl)c4)c3)COC(N)=N2)ccc1OC(F)F (racemic) [Example 205, (RS)-4-[3-(5-Chloro-pyridin-3-yl)-4-fluoro-phenyl]-4-(4-difluoromethoxy-3-methyl-phenyl)-4,5-dihydro-oxazol-2-ylamine formate] |
| 0.44 | COc1ccc([C@@]2(c3cccc(-c4cccc(Cl)c4)c3)COC(N)=N2)cc1 [Example 39A, (R)-4-(3′-Chloro-biphenyl-3-yl)-4-(4-methoxy-phenyl)-4,5-dihydro-oxazol-2-ylamine] |
| 0.04 | Cc1cc([C@]2(c3cccc(-c4cncc(Cl)c4)c3)COC(N)=N2)ccc1OC(F)F [Example 94A, (R)-4-[3-(5-Chloro-pyridin-3-yl)-phenyl]-4-(4-difluoromethoxy-3-methyl-phenyl)-4,5-dihydro-oxazol-2-ylamine] |

Second part, the molecule before the results:

| SMILES | IC50 [µM] |
| --- | --- |
| COc1cncc(-c2cccc(C3(c4ccc(OC)c(C(F)(F)F)c4)COC(N)=N3)c2)c1 (racemic) [Example 150, formate] | 0.33 |
| CCOc1cc(Nc2ccccc2)cc(C2(c3ccc(OC(F)F)c(C)c3)COC(N)=N2)c1 (racemic) [Example 192] | 0.66 |
| CCOCc1cc(Nc2ccccc2)cc(C2(c3ccc(OC(F)F)c(C)c3)COC(N)=N2)c1 (racemic) [Example 193, (RS)-4-(4-Difluoromethoxy-3-methyl-phenyl)-4-(3-ethoxymethyl-5-phenylamino-phenyl)-4,5-dihydro-oxazol-2-ylamine] | 0.08 |
| CCOCc1cc(Nc2cccc(OC)c2)cc(C2(c3ccc(OC(F)F)c(C)c3)COC(N)=N2)c1 (racemic) [Example 194, (RS)-4-(4-Difluoromethoxy-3-methyl-phenyl)-4-[3-ethoxymethyl-5-(3-methoxy-phenylamino)-phenyl]-4,5-dihydro-oxazol-2-ylamine] | 0.14 |
| CCOCc1cc(Nc2ccccc2)cc(C2(c3ccc(OC)c(C)c3)COC(N)=N2)c1 (racemic) [Example 195, (RS)-4-(3-Ethoxymethyl-5-phenylamino-phenyl)-4-(4-methoxy-3-methyl-phenyl)-4,5-dihydro-oxazol-2-ylamine] | 0.96 |
| COCCc1cc(Nc2ccccc2)cc(C2(c3ccc(OC)c(C)c3)COC(N)=N2)c1 (racemic) [Example 197, (RS)-4-[3-(2-Methoxy-ethyl)-5-phenylamino-phenyl]-4-(4-methoxy-3-methyl-phenyl)-4,5-dihydro-oxazol-2-ylamine] | 0.53 |
| Cc1cc(C2(c3cccc(-c4cncc(Cl)n4)c3)COC(N)=N2)ccc1OC(F)F (racemic) [Example 202, (RS)-4-[3-(6-Chloro-pyrazin-2-yl)-phenyl]-4-(4-difluoromethoxy-3-methyl-phenyl)-4,5-dihydro-oxazol-2-ylamine formate] | 0.44 |
| Cc1cc(C2(c3cccc(-c4cncc(C#N)c4)c3)COC(N)=N2)ccc1OC(F)F (racemic) [Example 203, (RS)-5-{3-[2-Amino-4-(4-difluoromethoxy-3-methyl-phenyl)-4,5-dihydro-oxazol-4-yl]-phenyl}-nicotinonitrile formate] | 0.11 |
| Cc1cc(C2(c3cccc(-c4cnccn4)c3)COC(N)=N2)ccc1OC(F)F (racemic) [Example 204, (RS)-4-(4-Difluoromethoxy-3-methyl-phenyl)-4-(3-pyrazin-2-yl-phenyl)-4,5-dihydro-oxazol-2-ylamine formate] | 0.16 |
